Source: patent US20050112251A1, “Preservation of liquids” (priority 2002, published 2005)

What was measured:
[1] = system: Zygosaccharomyces bailii CBS 1097; experiment: Time to spoilage of inoculated apple juice (visible growth, turbidity); type: cell-based; details: room temperature
Description: (§1) All experiments were done with pure apple juice. The chosen concentrations of natamycin were sub-optimal (=below MIC).
(§2) All experiments were executed in duplo. • a. The effect of natamycin against the spore forming yeast Zygosaccharomyces bailii CBS 1097 was examined. Apple juice was inoculated with 10^4 Colony Forming Units (CFU)/ml of apple juice. Natamycin was added at a concentration of 1 ppm. • b. The effect of natamycin was tested against Penicillium italicum ATCC 36041. A spore suspension was prepared using well-known methods. The freshly prepared spore suspension was added to apple juice to a final concentration of 104 spores/ml of apple juice. Natamycin was added at a concentration of 5 ppm.
(§3) The samples were incubated at room temperature until fungal growth was visually observed (turbidity of the juice).
(§4) The pulsed electric fields treatments were applied according to well-known procedures for PEF-treatments of liquids. The apple juice to be treated was pumped through the PEF-treatment chamber with a flow rate of 60 litres per hour. The treatment temperature also called juice temperature before the PEF-treatment chamber was 17° C. The value of the electric field strength and the pulse length kept constant were 35 kV/cm and 2-μs, respectively. Three samples points were validated by variation of the pulse frequency, from 8.6 Hz (treatment A) to 5.7 Hz (treatment B) and 2.9 Hz (treatment C). With the above-mentioned parameters, the apple juice received 12, 8 or 4 pulses; those correspond to an energy density of 71, 37 and 12.5 J/ml of juice, respectively.
The chosen inoculation levels, natamycin concentrations and PEF treatments were as described in the examples 2 and 3.
(§5) All samples were incubated at room temperature until fungal growth was visually observed (turbidity of the juice).
Zygosaccharomyces bailii was inoculated in apple juice as described in example 2. Sorbate was added at a concentration of 800 ppm.
The PEF-treatment was used as described in the example 3. […] (treatment B).
The samples were incubated at room temperature.

[2] = Stability of antifungal agent in apple juice during PEF treatment (HPLC); type: physicochemical; details: for inactivation of the antifungal agent by the PEF treatment: general statement in the description
Description: as §4
This example illustrates the resistance of natamycin to PEF treatments. Natamycin was added to apple juice at a concentration of 5 ppm and submitted to pulsed electric field treatments as described in example 3. The natamycin content after the PEF-treatments was determined by HPLC.

[3] = system: Aspergillus versicolor 245.62; experiment: Natamycin MIC, agar diffusion method; type: cell-based
Description: (§6) The minimal inhibition concentration (MIC) of these fungi or the minimal effective amount of the antifungal compound was determined using the agar diffusion method, which is well known in the art. Fungus spores were grown on agar plates containing different concentrations of natamycin. The concentration of natamycin on which no visible growth could be observed was considered as the minimal inhibition concentration for that particular fungus strain.

[4] = system: Byssochlamys nivea 424.300; experiment: Natamycin MIC, agar diffusion method; type: cell-based; details: Paecilomyces niveus, agar plates, no visible growth
Description: as §6

[5] = system: Cladosporium tenuissimum 117.79; experiment: Natamycin MIC, agar diffusion method; type: cell-based; details: isolated from fruit
Description: as §6

[6] = system: Mucor circinelloides 366.70; experiment: Natamycin MIC, agar diffusion method; type: cell-based; details: isolated from strawberries
Description: as §6

[7] = system: Peacilomyces variotii 10274; experiment: Natamycin MIC, agar diffusion method; type: cell-based
Description: as §6

[8] = system: Stemphiliomma valparadisiacum 510.83; experiment: Natamycin MIC, agar diffusion method; type: cell-based; details: isolated from apple juice
Description: as §6

[9] = system: Talaromyces macrosporus 130.89; experiment: Natamycin MIC, agar diffusion method; type: cell-based; details: isolated from pineapple juice
Description: as §6

[10] = system: Zygosporium mycophilum 396.49; experiment: Natamycin MIC, agar diffusion method; type: cell-based; details: isolated from apple pulp
Description: as §6

[11] = system: Penicillium italicum ATCC 36041; experiment: Time to spoilage of inoculated apple juice (visible growth, turbidity); type: cell-based; details: room temperature
Description: as §1, §2, §3, §4
The chosen inoculation levels, natamycin concentrations and PEF treatments were as described in the examples 2 and 3. The natamycin can be added before or after the PEF treatment.
as §5

[12] = system: Talaromyces macrosporus CBS 130.89 spores; experiment: Time to visible growth of heat-resistant fungus spores in apple juice; type: cell-based; details: 104 spores/ml apple juice, incubation 25° C.
Description: This example describes the activity of natamycin against spores of a heat resistant fungal species, which is well known for causing spoilage problems in food industry. All experiments were executed on Talaromyces macrosporus CBS 130.89 spores suspended in pure apple juice. The chosen concentration of natamycin was sub-optimal. […] All experiment were executed in duplo.
Apple juice was inoculated with 104 spores/ml of apple juice. Natamycin was added at a concentration of 2.5 ppm. The spores suspended in the apple juice were submitted to a heat treatment at 80° C. for 5 minutes in order to stimulate their germination.
The samples were incubated at room temperature until fungal growth was visually observed (turbidity of the juice). Growth was observed after 4 days of incubation at 25° C.
This example describes the effect of a Pulsed Electric Field treatment against heat-resistant spores of Talaromyces macrosporus CBS 130.89. The pulsed electric fields treatments were applied as describe in the example 3. One sample point was validated for a frequency of 8.6 Hz (treatment A).
The chosen inoculation levels, natamycin concentrations and PEF treatments were as described in the examples 8 and 9. The natamycin can be added before or after the PEF treatment.
All samples were incubated at room temperature until fungal growth was visually observed (turbidity of the juice). […]

[13] = system: fungal spores which survived the PEF treatment; experiment: Inhibition of outgrowth of fungal spores, summary of agar diffusion MIC; type: cell-based; details: summary of Table 1
Description: as §6

most food born fungi = details: cited from earlier work
[14] = cited from earlier work
[15] = natamycin 5 ppm + PEF-treatment C (2.9 Hz, 12.5 J/ml)

Q: Which results are given for `CC=CC=CC(=O)O` [sorbate]?
A: Time without observed fungal growth ([1]; sorbate 800 ppm + PEF-treatment B): at least 30 days; Time until fungal growth visually observed ([1]; sorbate 800 ppm alone): 6 days; inactivation of the antifungal agent by the PEF treatment [2]: not inactivated

Q: With `C[C@@H]1C/C=C/C=C/C=C/C=C/[C@H](O[C@@H]2O[C@H](C)[C@@H](O)[C@H](N)[C@@H]2O)C[C@@H]2O[C@](O)(C[C@@H](O)C[C@H]3O[C@@H]3/C=C/C(=O)O1)C[C@H](O)[C@H]2C(=O)O` [natamycin] as the compound, how does the MIC [3] read?
A: The MIC was < 2.5 µg/mL.

Q: And the MIC [4]?
A: The MIC was < 2.5 µg/mL.

Q: What about the MIC [5] of the same compound?
A: The MIC was < 2.5 µg/mL.

Q: What about the MIC [6] of the same compound?
A: Its MIC is < 2.5 µg/mL.

Q: And the MIC [7]?
A: The MIC was < 2.5 µg/mL.

Q: And the MIC [8]?
A: Its MIC is < 5 µg/mL.

Q: And the MIC [9]?
A: Its MIC is < 2.5 µg/mL.

Q: And the MIC [10]?
A: Its MIC is < 2.5 µg/mL.

Q: And the “Time to spoilage, natamycin added before PEF-treatment” value ([1]; natamycin 1 ppm + PEF-treatment A (8.6 Hz, 71 J/ml))?
A: Its value is >30 days.

Q: And the “Time to spoilage, natamycin added after PEF-treatment” value ([1]; natamycin 1 ppm + PEF-treatment B (5.7 Hz, 37 J/ml))?
A: The value was >30 days.

Q: What about the Time to spoilage ([1]; natamycin 1.0 ppm alone, 10^4 CFU/ml) of the same compound?
A: Its Time to spoilage is 2 days.

Q: And the “Time to spoilage, natamycin added after PEF-treatment” value [11, 15]?
A: Its value is >30 days.

Q: What about the “Time to spoilage, natamycin added before PEF-treatment” value [11, 15] of the same compound?
A: The value was >30 days.

Q: What about the Time to spoilage ([11]; natamycin 5.0 ppm alone, 104 spores/ml) of the same compound?
A: Its Time to spoilage is 4 days.

Q: What about the “Time until growth observed” value ([12]; natamycin 2.5 ppm + PEF-treatment A) of the same compound?
A: Its value is 9 days.

Q: What about the “Time until growth observed” value ([12]; natamycin 2.5 ppm alone, heat activation 80° C. 5 minutes) of the same compound?
A: Its value is 4 days.

Q: And the “natamycin content after the PEF-treatments (HPLC)” value ([2]; 5 ppm in apple juice, PEF treatments as in example 3)?
A: The value was “None of the analyzed samples showed a decrease”.

Q: And the “inactivation of the antifungal agent by the PEF treatment” value [2]?
A: The value was “not inactivated”.

Q: And the “concentration that inhibits the outgrowth of fungal spores” value [13]?
A: The value was < 5 ppm.

Q: What about the “MIC (Minimal Inhibition Concentration)” value (most food born fungi) of the same compound?
A: Its value is “less than 10 ppm”.

Q: And the solubility in water [14]?
A: Its solubility in water is 30 to 50 ppm.
